{"source": "the supplement of paper PMC6206229", "key": {"[1]": {"system": "Staphylococcus aureus ATCC 29213 (MSSA)", "assay": "minimum inhibitory concentration; extreme values may be limits of the assay", "outline": "(§1)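 Methicillin-susceptible and methicillin-resistant Staphylococcus aureus were assessed by broth microdilution with a resazurin read-out, compounds spanning 0 to 100 µM and incubated for 24 h at 37°C before 30 µl of 0.015% resazurin was added for 2–4 h. For the minimum inhibitory concentration, the lowest concentration whose well stayed blue rather than pink was recorded.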"}, "[2]": {"system": "Staphylococcus aureus ATCC 700699 (MRSA)", "assay": "minimum inhibitory concentration; extreme values may be limits of the assay", "outline": "as §1"}}}
{"molecule": "O=C(C1CCCCC1)N1CC(=O)N2CCc3ccccc3C2C1", "note": "(configuration not stated)", "values": [{"measurement": "minimum inhibitory concentration", "setting": "[1]", "result": "> 50", "unit": "µM"}, {"measurement": "minimum inhibitory concentration", "setting": "[2]", "result": "> 50", "unit": "µM"}]}
{"molecule": "COc1ccc(S(=O)(=O)Nc2ccc(CN3CCN(C(=O)c4cccc(C#N)c4)CC3)cc2)cc1", "values": [{"measurement": "minimum inhibitory concentration", "setting": "[1]", "result": "> 50", "unit": "µM"}, {"measurement": "minimum inhibitory concentration", "setting": "[2]", "result": "> 50", "unit": "µM"}]}
{"molecule": "CCCCN(CCCC)c1c(C#N)cc(S(=O)(=O)Nc2ccccc2)cc1C#N", "values": [{"measurement": "minimum inhibitory concentration", "setting": "[1]", "result": "> 50", "unit": "µM"}, {"measurement": "minimum inhibitory concentration", "setting": "[2]", "result": "> 50", "unit": "µM"}]}
{"molecule": "C[C@H](c1ccc2c(c1)CCCC2)N(C)c1ncc2c(N)nc(N)nc2n1", "values": [{"measurement": "minimum inhibitory concentration", "setting": "[1]", "result": 50, "unit": "µM"}, {"measurement": "minimum inhibitory concentration", "setting": "[2]", "result": 50, "unit": "µM"}]}
{"molecule": "CCOC(=O)c1cc(-c2csc(Nc3c(C)cc(C)cc3C)n2)on1", "values": [{"measurement": "minimum inhibitory concentration", "setting": "[1]", "result": "> 50", "unit": "µM"}, {"measurement": "minimum inhibitory concentration", "setting": "[2]", "result": "> 50", "unit": "µM"}]}
{"molecule": "Cc1cc2nc(NC(=O)C(C)(C)C)nc(Cl)c2n1Cc1ccc(Cl)cc1", "values": [{"measurement": "minimum inhibitory concentration", "setting": "[1]", "result": "> 50", "unit": "µM"}, {"measurement": "minimum inhibitory concentration", "setting": "[2]", "result": "> 50", "unit": "µM"}]}
{"molecule": "CN(C)c1cc(NC(=O)Nc2ccccc2)c2ccccc2n1", "values": [{"measurement": "minimum inhibitory concentration", "setting": "[1]", "result": "> 50", "unit": "µM"}, {"measurement": "minimum inhibitory concentration", "setting": "[2]", "result": "> 50", "unit": "µM"}]}
{"molecule": "CC1CS(=O)(=O)CCN1/N=C/c1ccc([N+](=O)[O-])o1", "note": "(configuration not stated)", "values": [{"measurement": "minimum inhibitory concentration", "setting": "[1]", "result": "> 50", "unit": "µM"}, {"measurement": "minimum inhibitory concentration", "setting": "[2]", "result": "> 50", "unit": "µM"}]}
{"molecule": "CS(=O)(=O)N1CCC(Cn2nc(Cc3cccc4ccccc34)c3c(N)ncnc32)CC1", "values": [{"measurement": "minimum inhibitory concentration", "setting": "[1]", "result": "> 50", "unit": "µM"}, {"measurement": "minimum inhibitory concentration", "setting": "[2]", "result": "> 50", "unit": "µM"}]}
{"molecule": "CCc1ccc(S(=O)(=O)Nc2cc(CN3CCN(CCC(C)C)CC3)ccc2C)cc1", "values": [{"measurement": "minimum inhibitory concentration", "setting": "[1]", "result": "> 50", "unit": "µM"}, {"measurement": "minimum inhibitory concentration", "setting": "[2]", "result": "> 50", "unit": "µM"}]}
{"molecule": "Cc1cc(OCC(=O)Nc2ccc(C(C)C)cc2)n(C)c(=O)c1C#N", "values": [{"measurement": "minimum inhibitory concentration", "setting": "[1]", "result": "> 50", "unit": "µM"}, {"measurement": "minimum inhibitory concentration", "setting": "[2]", "result": "> 50", "unit": "µM"}]}
{"molecule": "CCN(CC)C(=O)N1CCN(C)CC1", "values": [{"measurement": "minimum inhibitory concentration", "setting": "[1]", "result": "> 50", "unit": "µM"}, {"measurement": "minimum inhibitory concentration", "setting": "[2]", "result": "> 50", "unit": "µM"}]}
{"molecule": "CNC(=O)c1nn(C)c2c1C(C)(C)Cc1cnc(Nc3ccc(N4CCN(C)CC4)cc3)nc1-2", "values": [{"measurement": "minimum inhibitory concentration", "setting": "[1]", "result": "> 50", "unit": "µM"}, {"measurement": "minimum inhibitory concentration", "setting": "[2]", "result": "> 50", "unit": "µM"}]}
{"molecule": "CCN(CC)CCCN1CCN(C(=O)c2cccc(-c3noc(C(F)(F)F)n3)c2)CC1", "values": [{"measurement": "minimum inhibitory concentration", "setting": "[1]", "result": "> 50", "unit": "µM"}, {"measurement": "minimum inhibitory concentration", "setting": "[2]", "result": "> 50", "unit": "µM"}]}
{"molecule": "COc1cccc(CC(=O)N2CCC(n3c(C)nc4ccc(F)cc43)CC2)c1", "values": [{"measurement": "minimum inhibitory concentration", "setting": "[1]", "result": "> 50", "unit": "µM"}, {"measurement": "minimum inhibitory concentration", "setting": "[2]", "result": "> 50", "unit": "µM"}]}
{"molecule": "COc1cccc(-n2nnnc2S(C)(=O)=O)c1", "values": [{"measurement": "minimum inhibitory concentration", "setting": "[1]", "result": "> 50", "unit": "µM"}, {"measurement": "minimum inhibitory concentration", "setting": "[2]", "result": "> 50", "unit": "µM"}]}
{"molecule": "COc1ccc(-c2cnc3ccc(NCc4ccc(S(N)(=O)=O)cc4)nn23)cn1", "values": [{"measurement": "minimum inhibitory concentration", "setting": "[1]", "result": "> 50", "unit": "µM"}, {"measurement": "minimum inhibitory concentration", "setting": "[2]", "result": "> 50", "unit": "µM"}]}
{"molecule": "C[C@H](C(N)=O)N1CCCC[C@@H]1c1ccc(OCc2cccc(F)c2)cc1", "values": [{"measurement": "minimum inhibitory concentration", "setting": "[1]", "result": "> 50", "unit": "µM"}, {"measurement": "minimum inhibitory concentration", "setting": "[2]", "result": "> 50", "unit": "µM"}]}
{"molecule": "COC(=O)c1ccc(F)cc1NS(=O)(=O)c1cccc(-c2cnn(Cc3ccccc3)c2)c1", "values": [{"measurement": "minimum inhibitory concentration", "setting": "[1]", "result": "> 50", "unit": "µM"}, {"measurement": "minimum inhibitory concentration", "setting": "[2]", "result": "> 50", "unit": "µM"}]}
{"molecule": "Cc1nn(C)c(C)c1NS(=O)(=O)c1c(Cl)cc(-c2ccnc(N3CCNCC3)c2)cc1Cl", "values": [{"measurement": "minimum inhibitory concentration", "setting": "[1]", "result": "> 50", "unit": "µM"}, {"measurement": "minimum inhibitory concentration", "setting": "[2]", "result": "> 50", "unit": "µM"}]}
{"molecule": "CCC(NC(=O)c1ccccc1NC(=O)c1ccc(C)cc1)C(=O)OC", "note": "(configuration not stated)", "values": [{"measurement": "minimum inhibitory concentration", "setting": "[1]", "result": "> 50", "unit": "µM"}, {"measurement": "minimum inhibitory concentration", "setting": "[2]", "result": "> 50", "unit": "µM"}]}
{"molecule": "CN1CCCC1CCO[C@](C)(c1ccccc1)c1ccc(Cl)cc1", "note": "(some centres not stated)", "values": [{"measurement": "minimum inhibitory concentration", "setting": "[1]", "result": "> 50", "unit": "µM"}, {"measurement": "minimum inhibitory concentration", "setting": "[2]", "result": 50, "unit": "µM"}]}
{"molecule": "CCCn1c(CNc2ccccc2O)nc2ccccc21", "values": [{"measurement": "minimum inhibitory concentration", "setting": "[1]", "result": "> 50", "unit": "µM"}, {"measurement": "minimum inhibitory concentration", "setting": "[2]", "result": "> 50", "unit": "µM"}]}
{"molecule": "COc1cccc(-c2nc3c(N4CCCC4)cccc3n2CC2CCCN2)n1", "note": "(configuration not stated)", "values": [{"measurement": "minimum inhibitory concentration", "setting": "[1]", "result": 25, "unit": "µM"}, {"measurement": "minimum inhibitory concentration", "setting": "[2]", "result": 50, "unit": "µM"}]}
{"molecule": "Cc1ccc(-c2cc(C(=O)Nc3cccnc3)c3cc(Br)ccc3n2)cc1", "values": [{"measurement": "minimum inhibitory concentration", "setting": "[1]", "result": 50, "unit": "µM"}, {"measurement": "minimum inhibitory concentration", "setting": "[2]", "result": 50, "unit": "µM"}]}
{"molecule": "CCc1nc2ccc(Cl)cn2c1C(=O)NCc1ccc(N2CCC(c3ccc(OC(F)(F)F)cc3)CC2)cc1", "values": [{"measurement": "minimum inhibitory concentration", "setting": "[1]", "result": "> 50", "unit": "µM"}, {"measurement": "minimum inhibitory concentration", "setting": "[2]", "result": "> 50", "unit": "µM"}]}
{"molecule": "O=C(NCCc1ccn(-c2ccccc2)n1)C1CCCCC1", "values": [{"measurement": "minimum inhibitory concentration", "setting": "[1]", "result": "> 50", "unit": "µM"}, {"measurement": "minimum inhibitory concentration", "setting": "[2]", "result": "> 50", "unit": "µM"}]}
{"molecule": "CCc1nc2ccccc2n1CC(O)COc1cc(C)ccc1Cl", "note": "(configuration not stated)", "values": [{"measurement": "minimum inhibitory concentration", "setting": "[1]", "result": "> 50", "unit": "µM"}, {"measurement": "minimum inhibitory concentration", "setting": "[2]", "result": "> 50", "unit": "µM"}]}
{"molecule": "O=C(NCCN1CCCC1)c1cc(NCCN2CCOCC2)nc2ccc(Cl)cc12", "values": [{"measurement": "minimum inhibitory concentration", "setting": "[1]", "result": 50, "unit": "µM"}, {"measurement": "minimum inhibitory concentration", "setting": "[2]", "result": 50, "unit": "µM"}]}
{"molecule": "CC(C)(C)OC(=O)N1CCN(c2cc(-c3ccc(Oc4ccccc4)cc3)n[nH]2)CC1", "values": [{"measurement": "minimum inhibitory concentration", "setting": "[1]", "result": "> 50", "unit": "µM"}, {"measurement": "minimum inhibitory concentration", "setting": "[2]", "result": "> 50", "unit": "µM"}]}
{"molecule": "COc1ccccc1C(C)NCC(=O)Nc1cc(C(F)(F)F)ccc1Cl", "note": "(configuration not stated)", "values": [{"measurement": "minimum inhibitory concentration", "setting": "[1]", "result": "> 50", "unit": "µM"}, {"measurement": "minimum inhibitory concentration", "setting": "[2]", "result": "> 50", "unit": "µM"}]}
{"molecule": "C[C@H]1COc2c(N3CCN(C)CC3)c(F)cc3c(=O)c(C(=O)O)cn1c23", "values": [{"measurement": "minimum inhibitory concentration", "setting": "[1]", "result": 0.78, "unit": "µM"}, {"measurement": "minimum inhibitory concentration", "setting": "[2]", "result": 50, "unit": "µM"}]}
{"molecule": "CCOc1ccc(OCC(=O)Nc2cc(C)cc(C)c2)cc1", "values": [{"measurement": "minimum inhibitory concentration", "setting": "[1]", "result": "> 50", "unit": "µM"}, {"measurement": "minimum inhibitory concentration", "setting": "[2]", "result": "> 50", "unit": "µM"}]}
{"molecule": "CCC(Sc1nc2ccccc2o1)C(=O)Nc1nccs1", "note": "(configuration not stated)", "values": [{"measurement": "minimum inhibitory concentration", "setting": "[1]", "result": "> 50", "unit": "µM"}, {"measurement": "minimum inhibitory concentration", "setting": "[2]", "result": 50, "unit": "µM"}]}
{"molecule": "O=C(Nc1cccnc1)c1c(O)c2cccc3c2n(c1=O)CC3", "values": [{"measurement": "minimum inhibitory concentration", "setting": "[1]", "result": 25, "unit": "µM"}, {"measurement": "minimum inhibitory concentration", "setting": "[2]", "result": 50, "unit": "µM"}]}
{"molecule": "O=C(COc1cccc(F)c1)Nc1nc(-c2ccccn2)cs1", "values": [{"measurement": "minimum inhibitory concentration", "setting": "[1]", "result": "> 50", "unit": "µM"}, {"measurement": "minimum inhibitory concentration", "setting": "[2]", "result": "> 50", "unit": "µM"}]}
